Results on 19 molecules are retold here after article PMC7915765, “Biochemical Characterization, Specificity and Inhibition Studies of HTLV-1, HTLV-2, and HTLV-3 Proteases” (Life, 2021).

Where two headings read alike, the source gives them in different places. Where only a bound is given, the exact number is not on record here.

The target in test [1] is T1, HTLV-3 PR (Human T-cell leukemia virus 3, UniProt Q4U0X6). The experiment in a line: Inhibition study with HIV-1 PIs, HTLV-3 PR. It is filed as biochemical. More on the design: made in house; host or cells: E. coli BL21(DE3), pET11a. Conditions: inhibitor 1 µM final, substrate HTLV-3 MA/CA 0.40–0.43 mM, DMSO control = 100%, n = 2. Here is the method:
The IB-268 (KTKVL-r-VVQPK) and IB-269 (APQVL-r-PVMHP) reduced peptide bond (-r-)-containing inhibitors, which were synthesized by Dr. Ivo Blaha (Ferring Leciva, Prague, Czech Republic).
The reaction mixtures were prepared to contain 4.8 µL of substrate (in 0.40–0.43 mM final concentration), 0.2 µL of inhibitor, 5 µL of the enzyme, and 10 µL of a 2× incubation buffer. The substrates representing HTLV-2 and HTLV-3 MA/CA cleavage sites were used for HTLV-2 and HTLV-3 PRs, respectively. In the case of HIV-1 PIs, we applied 100 µM inhibitor stocks, while 0.5–100 µM stocks of IB-268 and IB-269 were used for screening. The inhibitors were dissolved in DMSO. Therefore, 0.2 µL of DMSO was added to the control samples.

For test [2], the target named is T2, HTLV-2 PR (Human T-cell leukemia virus 2, UniProt P03363). The test is described as follows: Inhibition study with HIV-1 PIs, HTLV-2 PR. It is filed as biochemical, human T-cell leukemia virus type 2. Also noted: made in house; host or cells: E. coli BL21(DE3). Conditions: inhibitor 1 µM final, substrate HTLV-2 MA/CA 0.40–0.43 mM, DMSO control = 100%, n = 2. Here is the method:
The inhibitors were dissolved in DMSO.

For test [3], the target named is T2, HTLV-2 PR. The test is described as follows: Protease activity assay with oligopeptide substrates (RP-HPLC), HTLV-2 PR. It is filed as biochemical, human T-cell leukemia virus type 2. To be noted: pH 5.6, 37 °C. Also noted: made in house; host or cells: E. coli BL21(DE3). An excerpt:
(§1) The oligopeptides representing the naturally occurring matrix/capsid (MA/CA), capsid/nucleocapsid (CA/NC), trans-frame protein/protease (TF1/PR), and PR/p1 cleavage sites of HTLV-1, -2, and -3 PRs were used as substrates. The oligopeptide substrates representing the natural sequences of HTLV PRs were ordered from BioBasic, while the oligopeptide substrates representing naturally occurring cleavage sites of various viruses, or the wild-type, the shortened, and the P4, P3, P2, P1, or P1′ variants of HTLV-1 MA/CA cleavage site (KTKVL*VVQPK) were in-house stocks. All peptides were dissolved in distilled water.
(§2) For kinetic measurements, we applied 10 µL 2× incubation buffer (0.5 M K3PO4, 4 M NaCl, 10 v/v% glycerol, 10 mM DTT, pH 5.6), 5 µL of HTLV-1, HTLV-2, or HTLV-3 PR (final concentration of the active enzyme was in 0.1–34.4 nM), and 0.5–5 µL oligopeptide substrate representing HTLV PR natural cleavage sites (0.05–1.10 mM final concentration). The final volume of the reaction mixture was set to 20 µL with distilled water if it was necessary. The reactions were initiated by the addition of the enzyme, were incubated at 37 °C for 0.5–4 h, and stopped by the addition of 180 µL 1 v/v% TFA. For substrates representing natural cleavage sites of retroviruses other than HTLV-1, -2, and -3 PRs (HIV-1, equine infectious anemia virus (EIAV), Rous sarcoma virus (RSV), mouse mammary tumor virus (MMTV), Mason-Pfizer monkey virus (MPMV), and murine leukemia virus (MuLV) and BLV) in a longer incubation time (24 h) was also applied. The cleavage products were separated by using a Nova-Pack C18 RP-HPLC column (3.9 mm × 150 mm, Waters Associates Inc, Milford, MA, USA) on HPLC (Merck-Hitachi LaChrom). Water-acetonitrile gradient (0–100%) was used for separation in the presence of 0.05% TFA at 2 mL/min flow rate. The kinetic parameters were determined by fitting the data—obtained at less than 20% substrate hydrolysis—to the Michaelis–Menten equation. The Gaussian equation was used to determine pH optimum and exponential growth equation for determination of optimal NaCl concentration, while linear regression was applied to plot the dependence of enzyme activity on temperature. Prism8 software (GraphPad Software Inc., San Diego, CA, USA) was used for evaluation. The kcat/KM catalytic constants were calculated based on the active enzyme concentration, which was determined by active site titration using the method described previously.

Test [4] relates to HTLV-1 PR. The test is described as follows: Protease activity assay with oligopeptide substrates (RP-HPLC), HTLV-1 PR. To be noted: substrate 0.05–1.10 mM, 2× buffer 0.5 M K3PO4, 4 M NaCl, 10 v/v% glycerol, 10 mM DTT, pH 5.6, 37 °C, 0.5–4 h. It is filed as biochemical, human T-cell leukemia virus type 1.
Text: as §1, §2

Test [5] deals with T1, HTLV-3 PR. The test is described as follows: Protease activity assay with oligopeptide substrates (RP-HPLC), HTLV-3 PR. Conditions: pH 5.6, 37 °C. Also noted: made in house; host or cells: E. coli BL21(DE3), pET11a. The format is biochemical, human T-cell leukemia virus type 3.
Text: as §1, §2

The test system of test [6] is HTLV-1 PR. Conditions: cleavage sites of viruses other than HTLV, retrieved from the literature, ref [28]; cited from earlier work. An excerpt: Table 2 Catalytic efficiencies of HTLV PRs on different substrates representing natural cleavage site sequences. Cleavage sites are labelled by asterisks within the sequences. Abbreviations: MA (matrix), CA (capsid), NC (nucleocapsid), and TF1 (trans-frame 1). | column: kcat/KM [mM^−1 s^−1] / HTLV-1 PR || Table 3 Catalytic efficiencies of HTLV PRs on different substrates representing natural cleavage site sequences of viruses other than HTLV. Cleavage sites are labelled by an asterisk within the sequences. Abbreviations: MA (matrix), CA (capsid), NC (nucleocapsid), TF (transframe), RT (reverse-transcriptase), and IN (integrase). | column: Substrate; kcat/KM (mM^−1 s^−1) / HTLV-1 PR ^1

Test [7] has as its system HIV-1 PR. To be noted: cleavage sites of viruses other than HTLV, retrieved from the literature, ref [28]; cited from earlier work. An excerpt: Table 3 Catalytic efficiencies of HTLV PRs on different substrates representing natural cleavage site sequences of viruses other than HTLV. Cleavage sites are labelled by an asterisk within the sequences. Abbreviations: MA (matrix), CA (capsid), NC (nucleocapsid), TF (transframe), RT (reverse-transcriptase), and IN (integrase). | column: kcat/KM (mM^−1 s^−1) / HIV-1 PR ^1

Where [8] appears, read: natural HTLV cleavage sites, substrate 0.05–1.10 mM, 2× buffer 0.5 M K3PO4, 4 M NaCl, 10 v/v% glycerol, 10 mM DTT, 0.5–4 h.
Setting [9] is: cleavage sites of viruses other than HTLV, longer incubation time (24 h) also applied.

T2 sequence (P03363 447-571): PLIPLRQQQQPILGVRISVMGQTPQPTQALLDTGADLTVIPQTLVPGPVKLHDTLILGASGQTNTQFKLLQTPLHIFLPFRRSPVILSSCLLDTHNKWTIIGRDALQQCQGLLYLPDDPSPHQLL
T1 sequence (Q4U0X6 431-553): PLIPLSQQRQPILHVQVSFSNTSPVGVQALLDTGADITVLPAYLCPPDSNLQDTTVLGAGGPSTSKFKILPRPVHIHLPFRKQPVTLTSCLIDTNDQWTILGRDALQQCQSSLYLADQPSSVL

As for `O=C1N(Cc2ccc(CO)cc2)[C@H](Cc2ccccc2)[C@H](O)[C@@H](O)[C@@H](Cc2ccccc2)N1Cc1ccc(CO)cc1` [DMP-323], the loss of activity in test [1] and in test [2] was under 50% each time.
In the case of `COC(=O)N[C@H](C(=O)N[C@@H](Cc1ccccc1)[C@@H](O)CN(Cc1ccc(-c2ccccn2)cc1)NC(=O)[C@@H](NC(=O)OC)C(C)(C)C)C(C)(C)C` [atazanavir], the loss of activity in test [1] and in test [2] was under 50% in each case.
Regarding `CC(C)(C)NC(=O)[C@@H]1C[C@@H]2CCCC[C@@H]2CN1C[C@@H](O)[C@H](Cc1ccccc1)NC(=O)[C@H](CC(N)=O)NC(=O)c1ccc2ccccc2n1` [saquinavir], the loss of activity in test [1] and in test [2] was under 50% each time.
On to “ASQCL*PILHP [HTLV-3 MA/CA, oligopeptide substrate ASQCL*PILHP]”, for which the kcat/KM stood at 2600 ± 400 M⁻¹ s⁻¹ in test [3] (setting [8]), 40900 ± 10400 M⁻¹ s⁻¹ in test [4] and 19700 ± 4400 M⁻¹ s⁻¹ in test [5] (setting [8]).
Turning to “KNKIL*MIQPK [HTLV-3 CA/NC, oligopeptide substrate KNKIL*MIQPK]”, in test [4], the kcat/KM result is listed as “not cleaved”.
Turning to “PHQLL*PIATP [HTLV-2 PR/P1, oligopeptide substrate PHQLL*PIATP]”, the figures for the kcat/KM in test [3] (setting [8]), in test [4] and in test [5] (setting [8]) were 92200 ± 41400 M⁻¹ s⁻¹, 10700 ± 4800 M⁻¹ s⁻¹ and 7500 ± 2700 M⁻¹ s⁻¹, respectively.
As for “PRTIL*PVIPL [HTLV-3 TF1/PR, oligopeptide substrate PRTIL*PVIPL]”, in test [4], the kcat/KM was found to be 109800 ± 29300 M⁻¹ s⁻¹.
Regarding “PSKVL*PVLAP [HTLV-3 PR/P1, oligopeptide substrate PSKVL*PVLAP]”, the kcat/KM in test [3] (setting [8]) turned out to be 2100 ± 300 M⁻¹ s⁻¹; in test [4], 7000 ± 2600 M⁻¹ s⁻¹; in test [5] (setting [8]) it was 22600 ± 5800 M⁻¹ s⁻¹.
Consider “RATVL*TVALH [RSV PR’/RT, oligopeptide substrate RATVL*TVALH]”, for which the kcat/KM entry was “not cleaved” in test [3] (setting [9]), 300 M⁻¹ s⁻¹ in test [6], 1900 M⁻¹ s⁻¹ in test [7] and “not cleaved” in test [5] (setting [9]).
For “SDLVL*LSAEARR [MMTV MA/PP21, oligopeptide substrate SDLVL*LSAEARR]”, the kcat/KM result in test [3] (setting [9]) is “not cleaved”; in test [6] it was “not cleaved”; in test [7], 6900 M⁻¹ s⁻¹; in test [5] (setting [9]) it was “not cleaved”.
As for “SPRTIL*PLIP [HTLV-2 TF1/PR, oligopeptide substrate SPRTIL*PLIP]”, the kcat/KM amounted to 132500 ± 42500 M⁻¹ s⁻¹ in test [3] (setting [8]), 4900 ± 1100 M⁻¹ s⁻¹ in test [4] and 5000 ± 1100 M⁻¹ s⁻¹ in test [5] (setting [8]).
For the molecule “TATIM*MQRGN [HIV-1 P2/NC, oligopeptide substrate TATIM*MQRGN]”, the kcat/KM entry in test [3] (setting [9]) is “not cleaved”; in test [6] it was “not cleaved”; in test [7] it was 74000 M⁻¹ s⁻¹; in test [5] (setting [9]), “not cleaved”.
With “TFQAY*PLREA [RSV RT/IN, oligopeptide substrate TFQAY*PLREA]”, the kcat/KM result in test [3] (setting [9]) was “not cleaved”; in test [6] it was “not cleaved”; in test [7], 180 M⁻¹ s⁻¹; in test [5] (setting [9]), “not cleaved”.
In the case of “TQTSLL*TLDDQ [MuLV NC/PR, oligopeptide substrate TQTSLL*TLDDQ]”, the kcat/KM result in test [3] (setting [9]), in test [6], in test [7] and in test [5] (setting [9]) was “not cleaved” in each case.
As for “TSQAF*PLRAG [MuLV P12/CA, oligopeptide substrate TSQAF*PLRAG]”, the kcat/KM result was “not cleaved” in test [3] (setting [9]), “not cleaved” in test [6], 8700 M⁻¹ s⁻¹ in test [7] and “not cleaved” in test [5] (setting [9]).
“TSTLL*IENSS [MuLV RT/IN, oligopeptide substrate TSTLL*IENSS]”: the kcat/KM result in test [3] (setting [9]), in test [6], in test [7] and in test [5] (setting [9]) was “not cleaved” throughout.
As for “TTQCF*PILHP [HTLV-2 MA/CA, oligopeptide substrate TTQCF*PILHP]”, the kcat/KM is 4300 ± 500 M⁻¹ s⁻¹ in test [3] (setting [8]), 14400 ± 4300 M⁻¹ s⁻¹ in test [4] and 37800 ± 20200 M⁻¹ s⁻¹ in test [5] (setting [8]).
For the molecule “VSFNF*PQITL [HIV-1 TF/PR, oligopeptide substrate VSFNF*PQITL]”, the kcat/KM result was “not cleaved” in test [3] (setting [9]), “not cleaved” in test [6], 6900 M⁻¹ s⁻¹ in test [7] and “not cleaved” in test [5] (setting [9]).
Regarding “VSQNY*PIVQ [HIV-1 MA/CA, oligopeptide substrate VSQNY*PIVQ]”, the kcat/KM entry in test [3] (setting [9]) is “not cleaved”; in test [6], “not cleaved”; in test [7], 45300 M⁻¹ s⁻¹; in test [5] (setting [9]) it was “not cleaved”.

What is called kcat/KM is the second-order rate constant that governs catalysis at low substrate concentration.
